Results: PMC5007978, “A chemical with proven clinical safety rescues Down-syndrome-related phenotypes in through DYRK1A inhibition” (Disease Models & Mechanisms, 2016)

Biological target: T1, DYRK4 (Homo sapiens, UniProt Q9NR20)
T1 construct: purchased Life Technologies (Kinase Profiler service)
T1 sequence (Q9NR20 1-520): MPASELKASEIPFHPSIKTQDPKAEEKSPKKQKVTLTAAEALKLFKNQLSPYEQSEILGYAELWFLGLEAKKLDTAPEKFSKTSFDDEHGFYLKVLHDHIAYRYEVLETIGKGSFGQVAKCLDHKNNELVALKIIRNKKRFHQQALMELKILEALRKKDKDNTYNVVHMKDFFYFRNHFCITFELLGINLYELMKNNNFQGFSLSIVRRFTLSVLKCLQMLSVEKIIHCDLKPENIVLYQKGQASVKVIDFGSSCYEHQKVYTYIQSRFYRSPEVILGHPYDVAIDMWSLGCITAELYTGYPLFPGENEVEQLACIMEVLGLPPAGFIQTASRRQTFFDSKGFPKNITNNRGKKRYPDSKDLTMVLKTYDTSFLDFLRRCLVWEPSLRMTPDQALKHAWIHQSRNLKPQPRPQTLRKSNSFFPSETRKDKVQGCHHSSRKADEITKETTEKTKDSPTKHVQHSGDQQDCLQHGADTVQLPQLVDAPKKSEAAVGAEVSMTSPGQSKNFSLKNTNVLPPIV
Test: In vitro kinase assay, recombinant human DYRK4 (Life Technologies)
Assay type: biochemical

With `O=C(O)c1ccc2c(c1)nc(Nc1cccc(Cl)c1)c1ccncc12` [CX-4945] the IC50 was 1.5 µM.
